From article doi:10.1101/2024.02.29.582594, “Hachiman is a genome integrity sensor” (bioRxiv, 2024)

Target: T1, HamB (Escherichia coli, UniProt A0A426EXV0)
T1 construct: gene DU321_04165; full-length HamB alone, N-terminal 10xHis-MBP-TEV, tag cut with TEV; expressed in E. coli BL21-AI
T1 sequence (A0A426EXV0 1-1174): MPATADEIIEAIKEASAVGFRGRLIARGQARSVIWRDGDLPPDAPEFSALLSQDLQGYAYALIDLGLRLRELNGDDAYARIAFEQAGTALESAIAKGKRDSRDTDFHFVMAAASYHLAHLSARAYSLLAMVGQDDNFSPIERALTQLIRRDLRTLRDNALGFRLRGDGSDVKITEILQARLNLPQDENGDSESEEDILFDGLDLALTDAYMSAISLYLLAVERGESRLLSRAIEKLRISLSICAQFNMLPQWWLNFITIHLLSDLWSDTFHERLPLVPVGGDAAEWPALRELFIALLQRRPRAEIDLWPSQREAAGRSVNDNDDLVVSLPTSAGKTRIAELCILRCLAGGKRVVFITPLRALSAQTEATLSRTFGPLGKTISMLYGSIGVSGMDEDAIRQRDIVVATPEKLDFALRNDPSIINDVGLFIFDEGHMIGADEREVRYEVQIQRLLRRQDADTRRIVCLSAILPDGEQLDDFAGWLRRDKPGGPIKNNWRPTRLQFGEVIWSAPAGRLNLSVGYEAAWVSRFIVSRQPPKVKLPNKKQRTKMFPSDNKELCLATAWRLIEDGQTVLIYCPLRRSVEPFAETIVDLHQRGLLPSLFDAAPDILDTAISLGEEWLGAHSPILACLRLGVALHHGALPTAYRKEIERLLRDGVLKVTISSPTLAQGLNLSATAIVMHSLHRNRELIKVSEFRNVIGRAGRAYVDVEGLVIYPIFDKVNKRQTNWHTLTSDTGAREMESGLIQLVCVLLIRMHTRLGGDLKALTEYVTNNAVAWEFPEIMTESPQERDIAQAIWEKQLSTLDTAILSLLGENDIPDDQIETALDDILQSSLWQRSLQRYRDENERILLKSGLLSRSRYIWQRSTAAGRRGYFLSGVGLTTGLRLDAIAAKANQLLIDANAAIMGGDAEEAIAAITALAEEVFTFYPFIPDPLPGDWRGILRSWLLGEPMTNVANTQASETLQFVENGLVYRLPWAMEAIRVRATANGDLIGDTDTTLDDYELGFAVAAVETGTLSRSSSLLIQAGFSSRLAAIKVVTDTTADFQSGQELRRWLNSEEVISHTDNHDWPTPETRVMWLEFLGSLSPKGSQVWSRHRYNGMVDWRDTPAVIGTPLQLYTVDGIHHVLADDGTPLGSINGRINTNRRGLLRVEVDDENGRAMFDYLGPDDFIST
Assay: malachite green phosphate release assay
Assay type: biochemical
Settings: 40 nM HamB, 100 nM ssDNA, 1 mM ATP, 2 mM MgSO4, pH 8.8, 37 °C, 30 min

Nc1ncnc2c1ncn2[C@@H]1O[C@H](COP(=O)(O)OP(=O)(O)OP(=O)(O)O)[C@@H](O)[C@H]1O [ATP]
malachite green phosphate release assay: we found strong HamB ATPase activity in the presence of single-stranded DNA
